Earlier results on two molecules are cited in paper PMC3618595 (Pharmaceutical research, 2013).

Molecules are shown by their SMILES.

For series [1] the following is noted: cited from earlier work.
Series [2] relates to plasma proteins. As to conditions: cited from earlier work.
The target in series [3] is T1, hASBT (Homo sapiens, UniProt Q12908).
T1 sequence (Q12908 1-348): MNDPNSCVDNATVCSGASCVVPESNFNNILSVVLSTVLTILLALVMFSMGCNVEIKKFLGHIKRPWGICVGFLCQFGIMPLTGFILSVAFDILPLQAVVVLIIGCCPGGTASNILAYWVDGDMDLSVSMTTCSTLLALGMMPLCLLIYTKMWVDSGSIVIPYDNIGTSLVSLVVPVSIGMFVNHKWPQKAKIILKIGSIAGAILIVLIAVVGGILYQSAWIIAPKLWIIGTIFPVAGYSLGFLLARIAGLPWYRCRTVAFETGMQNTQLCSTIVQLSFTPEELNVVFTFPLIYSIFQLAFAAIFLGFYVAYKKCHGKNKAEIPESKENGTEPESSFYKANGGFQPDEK
The conditions noted are these: taurocholate; cited from earlier work.

For the molecule `C[C@H](CCC(=O)O)[C@H]1CC[C@H]2[C@@H]3[C@H](O)C[C@@H]4C[C@H](O)CC[C@]4(C)[C@H]3CC[C@]12C` [chenodeoxycholic acid], the Octanol/water partition coefficient in series [1] is on record as 23.3. The “Binding to plasma proteins” value in series [2] is recorded as 96.2%.

In general, Km refers to the substrate concentration at which the rate is half of its maximum. Consider `C[C@H](CCC(=O)NCCS(=O)(=O)O)[C@H]1CC[C@H]2[C@@H]3[C@H](O)C[C@@H]4C[C@H](O)CC[C@]4(C)[C@H]3C[C@H](O)[C@]12C` [taurocholate], for which, in series [3], the Km is 4.39 µM.
